According to PubChem BioAssay AID1963848 (Molecular Pharmacology Branch, DTP, NCI, 2024):

Tested on: 379773-124-R-J2-PDC spheroid viability
Assay: Anticancer human tumor 379773-124-R-J2-PDC patient-derived endometrial carcinoma cell line growth inhibition [POLQ]
Conditions: spheroids with HUVEC and MSC; for IC50: curve of first compound; for viability, T/C: stronger effect = lower value
Procedure, shortened: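 Complex spheroid viability model combining PDC tumour cells with endothelial (HUVEC) and MSC stromal cells. Novobiocin, ART-558 or RP6685 were tested singly and in combination with standard and investigational anticancer drugs. Each was titrated in half-log steps from near clinical Cmax, or from 10 microM where Cmax was unknown.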

[1] = second compound 0.0316 µM, first compound 0.0316 µM
[2] = second compound 0.0316 µM, first compound 0.1 µM
[3] = second compound 0.0316 µM, first compound 0.316 µM
[4] = second compound 0.0316 µM, first compound 1 µM
[5] = second compound 0.0316 µM, first compound 3.16 µM
[6] = second compound 0.0316 µM, first compound 10 µM
[7] = second compound 0.1 µM, first compound 0.0316 µM
[8] = second compound 0.1 µM, first compound 0.1 µM
[9] = second compound 0.1 µM, first compound 0.316 µM
[10] = second compound 0.1 µM, first compound 1 µM
[11] = second compound 0.1 µM, first compound 3.16 µM
[12] = second compound 0.1 µM, first compound 10 µM
[13] = second compound 0.316 µM, first compound 0.0316 µM
[14] = second compound 0.316 µM, first compound 0.1 µM
[15] = second compound 0.316 µM, first compound 0.316 µM
[16] = second compound 0.316 µM, first compound 1 µM
[17] = second compound 0.316 µM, first compound 3.16 µM
[18] = second compound 0.316 µM, first compound 10 µM
[19] = second compound 1 µM, first compound 0.0316 µM
[20] = second compound 1 µM, first compound 0.1 µM
[21] = second compound 1 µM, first compound 0.316 µM
[22] = second compound 1 µM, first compound 1 µM
[23] = second compound 1 µM, first compound 3.16 µM
[24] = second compound 1 µM, first compound 10 µM
[25] = second compound 3.16 µM, first compound 0.0316 µM
[26] = second compound 3.16 µM, first compound 0.1 µM
[27] = second compound 3.16 µM, first compound 0.316 µM
[28] = second compound 3.16 µM, first compound 1 µM
[29] = second compound 3.16 µM, first compound 3.16 µM
[30] = second compound 3.16 µM, first compound 10 µM
[31] = second compound 10 µM, first compound 0.0316 µM
[32] = second compound 10 µM, first compound 0.1 µM
[33] = second compound 10 µM, first compound 0.316 µM
[34] = second compound 10 µM, first compound 1 µM
[35] = second compound 10 µM, first compound 3.16 µM
[36] = second compound 10 µM, first compound 10 µM
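Also: spheroids exposed to drugs for seven days before readout.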
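For viability, T/C in this document: percent viability relative to DMSO vehicle control taken as 100%.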

CCc1cc2c(N3CCc4c(cc(Cn5ccnc5)cc4-c4cn(C)nc4C(F)(F)F)C3=O)ccnc2c(OC)n1 + Cc1cccc(N(C)C(=O)C2C(O)CCN2c2nc(C)cc(C(F)(F)F)c2C#N)c1
IC50 (second compound 0.0316 µM): > 10 µM
IC50 (second compound 0.1 µM): > 10 µM
IC50 (second compound 0.316 µM): > 10 µM
IC50 (second compound 1 µM): > 10 µM
IC50 (second compound 3.16 µM): > 10 µM
IC50 (second compound 10 µM): 3.73 µM
viability, T/C [1]: 76.1%
viability, T/C [2]: 68.8%
viability, T/C [3]: 73%
viability, T/C [4]: 63.2%
viability, T/C [5]: 59.1%
viability, T/C [6]: 54.5%
viability, T/C [7]: 81.9%
viability, T/C [8]: 71.1%
viability, T/C [9]: 64.3%
viability, T/C [10]: 69.6%
viability, T/C [11]: 55.2%
viability, T/C [12]: 50%
viability, T/C [13]: 71.9%
viability, T/C [14]: 85.3%
viability, T/C [15]: 70.2%
viability, T/C [16]: 64.8%
viability, T/C [17]: 55.5%
viability, T/C [18]: 53%
viability, T/C [19]: 83.6%
viability, T/C [20]: 68.9%
viability, T/C [21]: 65%
viability, T/C [22]: 63.7%
viability, T/C [23]: 55.9%
viability, T/C [24]: 50.2%
viability, T/C [25]: 73.5%
viability, T/C [26]: 80.8%
viability, T/C [27]: 60.9%
viability, T/C [28]: 65.2%
viability, T/C [29]: 58.8%
viability, T/C [30]: 55.7%
viability, T/C [31]: 69.6%
viability, T/C [32]: 68.2%
viability, T/C [33]: 62%
viability, T/C [34]: 57.9%
viability, T/C [35]: 50.1%
viability, T/C [36]: 44.2%

COc1cc2cc(C(=O)CCC(=O)O)sc2cc1OC + Cc1cccc(N(C)C(=O)C2C(O)CCN2c2nc(C)cc(C(F)(F)F)c2C#N)c1
IC50 (second compound 0.0316 µM): > 10 µM
IC50 (second compound 0.1 µM): > 10 µM
IC50 (second compound 0.316 µM): > 10 µM
IC50 (second compound 1 µM): > 10 µM
IC50 (second compound 3.16 µM): > 10 µM
IC50 (second compound 10 µM): > 10 µM
viability, T/C [1]: 90.8%
viability, T/C [2]: 100%
viability, T/C [3]: 86.1%
viability, T/C [4]: 89.3%
viability, T/C [5]: 89.2%
viability, T/C [6]: 102%
viability, T/C [7]: 96.3%
viability, T/C [8]: 89.2%
viability, T/C [9]: 85.3%
viability, T/C [10]: 96.9%
viability, T/C [11]: 105%
viability, T/C [12]: 91.2%
viability, T/C [13]: 102%
viability, T/C [14]: 88.5%
viability, T/C [15]: 85.2%
viability, T/C [16]: 90.1%
viability, T/C [17]: 85.8%
viability, T/C [18]: 89%
viability, T/C [19]: 88.5%
viability, T/C [20]: 103%
viability, T/C [21]: 96.3%
viability, T/C [22]: 100%
viability, T/C [23]: 102%
viability, T/C [24]: 88.1%
viability, T/C [25]: 101%
viability, T/C [26]: 83.7%
viability, T/C [27]: 103%
viability, T/C [28]: 100%
viability, T/C [29]: 87.7%
viability, T/C [30]: 95.1%
viability, T/C [31]: 94.5%
viability, T/C [32]: 84.6%
viability, T/C [33]: 89.7%
viability, T/C [34]: 89.9%
viability, T/C [35]: 103%
viability, T/C [36]: 85.3%

COc1ccc([C@@H](O)c2cc(-c3ncnc4cc(N5CCOCC5)ccc34)c(F)cc2Cl)nn1 + Cc1cccc(N(C)C(=O)C2C(O)CCN2c2nc(C)cc(C(F)(F)F)c2C#N)c1
IC50 (second compound 0.0316 µM): 6.33 µM
IC50 (second compound 0.1 µM): 5.88 µM
IC50 (second compound 0.316 µM): 7 µM
IC50 (second compound 1 µM): 6.79 µM
IC50 (second compound 3.16 µM): 6.78 µM
IC50 (second compound 10 µM): 6.19 µM
viability, T/C [1]: 81.3%
viability, T/C [2]: 83.6%
viability, T/C [3]: 94.3%
viability, T/C [4]: 96.3%
viability, T/C [5]: 75%
viability, T/C [6]: 33.5%
viability, T/C [7]: 87%
viability, T/C [8]: 89.6%
viability, T/C [9]: 92%
viability, T/C [10]: 87.1%
viability, T/C [11]: 64.1%
viability, T/C [12]: 37.9%
viability, T/C [13]: 81.5%
viability, T/C [14]: 82.1%
viability, T/C [15]: 101%
viability, T/C [16]: 82.4%
viability, T/C [17]: 73%
viability, T/C [18]: 39.8%
viability, T/C [19]: 97.2%
viability, T/C [20]: 85.4%
viability, T/C [21]: 92%
viability, T/C [22]: 81.8%
viability, T/C [23]: 83.8%
viability, T/C [24]: 33.4%
viability, T/C [25]: 87.3%
viability, T/C [26]: 85.5%
viability, T/C [27]: 96.7%
viability, T/C [28]: 74.8%
viability, T/C [29]: 81.6%
viability, T/C [30]: 35%
viability, T/C [31]: 74.8%
viability, T/C [32]: 78.5%
viability, T/C [33]: 85.2%
viability, T/C [34]: 80%
viability, T/C [35]: 82.2%
viability, T/C [36]: 28.4%

O=C(Nc1ccc(O)c(NS(=O)(=O)c2ccc(F)cc2)c1)c1ccc(-c2ccccc2)cc1 + Cc1cccc(N(C)C(=O)C2C(O)CCN2c2nc(C)cc(C(F)(F)F)c2C#N)c1
IC50 (second compound 0.0316 µM): > 10 µM
IC50 (second compound 0.1 µM): > 10 µM
IC50 (second compound 0.316 µM): > 10 µM
IC50 (second compound 1 µM): > 10 µM
IC50 (second compound 3.16 µM): > 10 µM
IC50 (second compound 10 µM): > 10 µM
viability, T/C [1]: 94.5%
viability, T/C [2]: 109%
viability, T/C [3]: 85.7%
viability, T/C [4]: 102%
viability, T/C [5]: 88.9%
viability, T/C [6]: 75.3%
viability, T/C [7]: 88.8%
viability, T/C [8]: 91.8%
viability, T/C [9]: 87.2%
viability, T/C [10]: 92.4%
viability, T/C [11]: 86.4%
viability, T/C [12]: 85.8%
viability, T/C [13]: 96.7%
viability, T/C [14]: 104%
viability, T/C [15]: 104%
viability, T/C [16]: 99.6%
viability, T/C [17]: 92.8%
viability, T/C [18]: 87%
viability, T/C [19]: 102%
viability, T/C [20]: 86.2%
viability, T/C [21]: 90.9%
viability, T/C [22]: 90.2%
viability, T/C [23]: 94.5%
viability, T/C [24]: 75.5%
viability, T/C [25]: 98.3%
viability, T/C [26]: 90.3%
viability, T/C [27]: 85.4%
viability, T/C [28]: 92.5%
viability, T/C [29]: 85.4%
viability, T/C [30]: 71%
viability, T/C [31]: 84%
viability, T/C [32]: 93.1%
viability, T/C [33]: 80.4%
viability, T/C [34]: 94%
viability, T/C [35]: 80.5%
viability, T/C [36]: 62.3%
